The source of these data is publication PMC5218480 (PLoS ONE, 2017).

In the test the test system is MV-4-11 cells. As to the kind of experiment: Gene expression microarray analysis (Affymetrix PrimeView) and GSEA. The format is cell-based, human. Further details: RFU PODN (11730768_x_at) / Fold change /veh PODN (11730768_x_at) / RFU LINC00158 (11744669_a_at) / Fold change /veh LINC00158 (11744669_a_at) / RFU DUSP10 (11751237_a_at) / Fold change /veh DUSP10 (11751237_a_at) / RFU ID3 (11757404_x_at) / Fold change /veh ID3 (11757404_x_at) / RFU PLEKHG5 (11737974_s_at) / Fold change /veh PLEKHG5 (11737974_s_at) / RFU LRRC4B (11730491_at) / Fold change /veh LRRC4B (11730491_at) / RFU GIMAP4 (11747438_a_at) / Fold change /veh GIMAP4 (11747438_a_at) / RFU KRT8 (11758183_x_at) / Fold change /veh KRT8 (11758183_x_at) / RFU CNN1 (11734310_a_at) / Fold change /veh CNN1 (11734310_a_at) / RFU VPS37D (11726825_at) / Fold change /veh VPS37D (11726825_at) / RFU C10orf10 (11716522_x_at) / Fold change /veh C10orf10 (11716522_x_at) / RFU KIR2DL2 /// KIR2DL4 /// KIR2DL5A /// KIR2DL5B /// KIR2DS1 /// KIR2DS2 /// KIR2DS3 /// KIR2DS4 /// KIR3DL3 /// KIR3DL3 /// KIR3DS1 (11738374_at) / Fold change /veh KIR2DL2 /// KIR2DL4 /// KIR2DL5A /// KIR2DL5B /// KIR2DS1 /// KIR2DS2 /// KIR2DS3 /// KIR2DS4 /// KIR3DL3 /// KIR3DL3 /// KIR3DS1 (11738374_at) / RFU C1QL1 (11718748_at) / Fold change /veh C1QL1 (11718748_at) / RFU TMPRSS4 (11747572_a_at) / Fold change /veh TMPRSS4 (11747572_a_at) / RFU HAMP (11756126_x_at) / Fold change /veh HAMP (11756126_x_at) / RFU RNFT2 (11725882_a_at) / Fold change /veh RNFT2 (11725882_a_at) / RFU NR4A2 (11747474_a_at) / Fold change /veh NR4A2 (11747474_a_at) / RFU ABCC12 (11746883_a_at) / Fold change /veh ABCC12 (11746883_a_at) / RFU TMEM136 (11760407_x_at) / Fold change /veh TMEM136 (11760407_x_at) / RFU CLDN22 /// WWC2 (11732394_at) / Fold change /veh CLDN22 /// WWC2 (11732394_at) / RFU HLA-DPB1 (11760878_x_at) / Fold change /veh HLA-DPB1 (11760878_x_at) / RFU SPINT1 (11716480_a_at) / Fold change /veh SPINT1 (11716480_a_at) / RFU GAP43 (11754022_s_at) / Fold change /veh GAP43 (11754022_s_at) / RFU A4GNT (11735810_at) / Fold change /veh A4GNT (11735810_at) / RFU PRB3 (11715151_x_at) / Fold change /veh PRB3 (11715151_x_at) / RFU TUBB4B (11761932_at) / Fold change /veh TUBB4B (11761932_at) / RFU CAPN14 (11732068_a_at) / Fold change /veh CAPN14 (11732068_a_at) / RFU TMCC2 (11721928_a_at) / Fold change /veh TMCC2 (11721928_a_at) / RFU IRGQ (11745062_a_at) / Fold change /veh IRGQ (11745062_a_at) / RFU FAM174B (11720279_a_at) / Fold change /veh FAM174B (11720279_a_at) / RFU TMPRSS4 (11748680_a_at) / Fold change /veh TMPRSS4 (11748680_a_at) / RFU FAM212B (11763350_a_at) / Fold change /veh FAM212B (11763350_a_at) / RFU PLEKHG5 (11743358_a_at) / Fold change /veh PLEKHG5 (11743358_a_at) / RFU ZSCAN30 (11745921_a_at) / Fold change /veh ZSCAN30 (11745921_a_at) / RFU CMKLR1 (11741424_a_at) / Fold change /veh CMKLR1 (11741424_a_at) / RFU LOC101060620 /// MAPK8IP1 (11723275_at) / Fold change /veh LOC101060620 /// MAPK8IP1 (11723275_at) / RFU SPTSSB (11747773_x_at) / Fold change /veh SPTSSB (11747773_x_at) / RFU PRSS12 (11739890_at) / Fold change /veh PRSS12 (11739890_at) / RFU BIN1 (11741810_x_at) / Fold change /veh BIN1 (11741810_x_at) / RFU WNT11 (11732464_a_at) / Fold change /veh WNT11 (11732464_a_at) / RFU C10orf10 (11716521_a_at) / Fold change /veh C10orf10 (11716521_a_at) / RFU C5orf56 (11738089_at) / Fold change /veh C5orf56 (11738089_at) / RFU CYB561 (11721691_x_at) / Fold change /veh CYB561 (11721691_x_at) / RFU ANKRD19P (11752326_a_at) / Fold change /veh ANKRD19P (11752326_a_at) / RFU OR2T12 /// OR2T33 /// OR2T8 (11738714_s_at) / Fold change /veh OR2T12 /// OR2T33 /// OR2T8 (11738714_s_at) / RFU VCAN (11748164_a_at) / Fold change /veh VCAN (11748164_a_at) / RFU JSRP1 (11732532_at) / Fold change /veh JSRP1 (11732532_at) / RFU KRTAP10-11 (11738290_x_at) / Fold change /veh KRTAP10-11 (11738290_x_at) / RFU MYO3A (11730013_a_at) / Fold change /veh MYO3A (11730013_a_at) / RFU EBF3 (11725865_a_at) / Fold change /veh EBF3 (11725865_a_at) / RFU CAMK2N1 (11719241_x_at) / Fold change /veh CAMK2N1 (11719241_x_at) / RFU C5orf56 (11738088_a_at) / Fold change /veh C5orf56 (11738088_a_at) / RFU OLFML3 (11715873_a_at) / Fold change /veh OLFML3 (11715873_a_at) / RFU LOC100653217 /// NTM (11731650_a_at) / Fold change /veh LOC100653217 /// NTM (11731650_a_at) / RFU MAPK11 (11762145_a_at) / Fold change /veh MAPK11 (11762145_a_at) / RFU FIZ1 (11724087_x_at) / Fold change /veh FIZ1 (11724087_x_at) / RFU OASL (11726364_x_at) / Fold change /veh OASL (11726364_x_at) / RFU SOX15 (11748057_x_at) / Fold change /veh SOX15 (11748057_x_at) / RFU CD79A (11719716_a_at) / Fold change /veh CD79A (11719716_a_at) / RFU HIST1H1D (11736915_at) / Fold change /veh HIST1H1D (11736915_at) / RFU CASKIN2 (11723855_a_at) / Fold change /veh CASKIN2 (11723855_a_at) / RFU LOC730098 (11760151_x_at) / Fold change /veh LOC730098 (11760151_x_at) / RFU OR4N2 (11742367_at) / Fold change /veh OR4N2 (11742367_at) / RFU PRRT2 (11749266_a_at) / Fold change /veh PRRT2 (11749266_a_at) / RFU SNX32 (11753110_a_at) / Fold change /veh SNX32 (11753110_a_at) / RFU CDHR5 (11726645_a_at) / Fold change /veh CDHR5 (11726645_a_at) / RFU RCAN1 (11760418_a_at) / Fold change /veh RCAN1 (11760418_a_at) / RFU FAM167A (11723789_a_at) / Fold change /veh FAM167A (11723789_a_at) / RFU FAM26E (11764081_at) / Fold change /veh FAM26E (11764081_at) / RFU ISYNA1 (11749810_s_at) / Fold change /veh ISYNA1 (11749810_s_at) / RFU ACY1 (11761880_at) / Fold change /veh ACY1 (11761880_at) / RFU 11764098_at / Fold change /veh 11764098_at / RFU SAMD14 (11745864_x_at) / Fold change /veh SAMD14 (11745864_x_at) / RFU NPB (11741838_a_at) / Fold change /veh NPB (11741838_a_at) / RFU TMPRSS6 (11731388_a_at) / Fold change /veh TMPRSS6 (11731388_a_at) / RFU KRTAP10-2 (11738614_at) / Fold change /veh KRTAP10-2 (11738614_at) / RFU ARHGAP8 /// PRR5-ARHGAP8 (11727945_x_at) / Fold change /veh ARHGAP8 /// PRR5-ARHGAP8 (11727945_x_at) / RFU KRTAP5-7 /// NADSYN1 (11734609_at) / Fold change /veh KRTAP5-7 /// NADSYN1 (11734609_at) / RFU RASL12 (11751679_a_at) / Fold change /veh RASL12 (11751679_a_at) / RFU CDKN2B (11736163_a_at) / Fold change /veh CDKN2B (11736163_a_at) / RFU PRF1 (11729649_at) / Fold change /veh PRF1 (11729649_at) / RFU, ZNF638 /// ZNF638-IT1 / Fold change vs veh, ZNF638 /// ZNF638-IT1 / RFU, PANK3 / Fold change vs veh, PANK3 / RFU, SH3YL1 / Fold change vs veh, SH3YL1 / RFU, ZEB2 / Fold change vs veh, ZEB2 / RFU, NRIP1 / Fold change vs veh, NRIP1 / RFU, PTTG1IP / Fold change vs veh, PTTG1IP / RFU, CAPN2 / Fold change vs veh, CAPN2 / RFU, MED14 / Fold change vs veh, MED14 / RFU, SNORA58 / Fold change vs veh, SNORA58 / RFU, C1orf63 / Fold change vs veh, C1orf63 / RFU, LRRFIP1 / Fold change vs veh, LRRFIP1 / RFU, NDUFAF7 / Fold change vs veh, NDUFAF7 / RFU, SLC12A2 / Fold change vs veh, SLC12A2 / RFU, IBTK / Fold change vs veh, IBTK / RFU, ESF1 / Fold change vs veh, ESF1 / Fold change vs veh, TMEM50B / RFU, TAOK1 / Fold change vs veh, TAOK1 / RFU, ACBD3 / Fold change vs veh, ACBD3 / RFU, TMA16 / Fold change vs veh, TMA16 / RFU, RWDD3 / Fold change vs veh, RWDD3 / RFU, BCAT1 / Fold change vs veh, BCAT1 / RFU, EDEM3 / Fold change vs veh, EDEM3 / RFU, TMEM33 / Fold change vs veh, TMEM33 / RFU, WDR75 / Fold change vs veh, WDR75 / RFU, AHCTF1 / Fold change vs veh, AHCTF1 / RFU, TFRC / Fold change vs veh, TFRC / RFU, ZDHHC17 / Fold change vs veh, ZDHHC17 / RFU, NOM1 / Fold change vs veh, NOM1 / RFU, ARL8B / Fold change vs veh, ARL8B / RFU, ZBTB11 / Fold change vs veh, ZBTB11 / RFU, TAMM41 / Fold change vs veh, TAMM41 / RFU, KIAA1704 /// LOC100996395 / Fold change vs veh, KIAA1704 /// LOC100996395 / RFU, ING1 / Fold change vs veh, ING1 / RFU, TRMT61B / Fold change vs veh, TRMT61B / RFU, FUBP3 / Fold change vs veh, FUBP3 / RFU, TP53 / Fold change vs veh, TP53 / RFU, TNKS2 / Fold change vs veh, TNKS2 / RFU, ZFP14 / Fold change vs veh, ZFP14 / RFU, ACTR2 / Fold change vs veh, ACTR2 / RFU, PPP3R1 / Fold change vs veh, PPP3R1 / RFU, PIK3R1 / Fold change vs veh, PIK3R1 / RFU, HNRNPA1 / Fold change vs veh, HNRNPA1 / RFU, RNF170 / Fold change vs veh, RNF170 / RFU, ZNF28 / Fold change vs veh, ZNF28 / RFU, RNGTT / Fold change vs veh, RNGTT / RFU, OGT / Fold change vs veh, OGT / RFU, BRD1 / Fold change vs veh, BRD1 / RFU, MARS / Fold change vs veh, MARS / RFU, ZNF655 / Fold change vs veh, ZNF655 / RFU, FAHD1 / Fold change vs veh, FAHD1 / RFU, BDP1 / Fold change vs veh, BDP1 / RFU, LRRCC1 / Fold change vs veh, LRRCC1 / RFU, ARID1A / Fold change vs veh, ARID1A / RFU, ZNF146 / Fold change vs veh, ZNF146 / RFU, ZNF330 / Fold change vs veh, ZNF330 / RFU, GPN3 / Fold change vs veh, GPN3 / RFU, C9orf123 / Fold change vs veh, C9orf123 / RFU, N4BP2L2 / Fold change vs veh, N4BP2L2 / RFU, ARFIP1 / Fold change vs veh, ARFIP1 / RFU, FAM179B / Fold change vs veh, FAM179B / RFU, BCL10 / Fold change vs veh, BCL10 / RFU, UHRF1BP1L / Fold change vs veh, UHRF1BP1L / RFU, BET1 / Fold change vs veh, BET1 / RFU, CNOT2 / Fold change vs veh, CNOT2 / RFU, ZNF268 / Fold change vs veh, ZNF268 / Fold change vs veh, ZNF507 / RFU, DGCR2 / Fold change vs veh, DGCR2 / RFU, WDSUB1 / Fold change vs veh, WDSUB1 / Fold change vs veh, HSP90B1 /// MIR3652 / RFU, ADSS / Fold change vs veh, ADSS / RFU, GK / Fold change vs veh, GK / RFU, ZNF148 / Fold change vs veh, ZNF148 / RFU, TAF9 / Fold change vs veh, TAF9 / RFU, SLC1A5 / Fold change vs veh, SLC1A5 / RFU, SLMO2 / Fold change vs veh, SLMO2 / RFU, ABCC4 / Fold change vs veh, ABCC4 / RFU, LOC101060439 /// RAP1B / Fold change vs veh, LOC101060439 /// RAP1B / RFU, RFX7 / Fold change vs veh, RFX7 / RFU, GTPBP10 / Fold change vs veh, GTPBP10 / RFU, CNEP1R1 / Fold change vs veh, CNEP1R1 / RFU, BIVM-ERCC5 /// ERCC5 / Fold change vs veh, BIVM-ERCC5 /// ERCC5 / RFU, ILF3 / Fold change vs veh, ILF3 / RFU 11762660_at / Fold change /veh 11762660_at / RFU VCAN (11757783_s_at) / Fold change /veh VCAN (11757783_s_at) / RFU DDX43 (11728927_at) / Fold change /veh DDX43 (11728927_at) / RFU KRT8 (11758188_x_at) / Fold change /veh KRT8 (11758188_x_at) / RFU NKD1 (11759106_at) / Fold change /veh NKD1 (11759106_at) / RFU SRD5A1 (11742802_a_at) / Fold change /veh SRD5A1 (11742802_a_at) / RFU TPSAB1 /// TPSB2 (11721975_s_at) / Fold change /veh TPSAB1 /// TPSB2 (11721975_s_at) / RFU GSTM3 (11746129_a_at) / Fold change /veh GSTM3 (11746129_a_at) / RFU IL23R (11737362_x_at) / Fold change /veh IL23R (11737362_x_at) / RFU TMEM51 (11727254_a_at) / Fold change /veh TMEM51 (11727254_a_at) / RFU PIWIL2 (11732686_x_at) / Fold change /veh PIWIL2 (11732686_x_at) / RFU ORM1 (11744905_x_at) / Fold change /veh ORM1 (11744905_x_at) / RFU CCDC152 (11743942_at) / Fold change /veh CCDC152 (11743942_at) / RFU ECM1 (11717891_a_at) / Fold change /veh ECM1 (11717891_a_at) / RFU IL23R (11748794_a_at) / Fold change /veh IL23R (11748794_a_at) / RFU TNFAIP8L3 (11732012_x_at) / Fold change /veh TNFAIP8L3 (11732012_x_at) / RFU MBOAT4 (11741988_at) / Fold change /veh MBOAT4 (11741988_at) / RFU 11764193_at / Fold change /veh 11764193_at / RFU TMEM53 (11763286_at) / Fold change /veh TMEM53 (11763286_at) / RFU MAGEB2 (11727129_at) / Fold change /veh MAGEB2 (11727129_at) / RFU TMEM200A (11744735_a_at) / Fold change /veh TMEM200A (11744735_a_at) / RFU CCDC152 (11751479_a_at) / Fold change /veh CCDC152 (11751479_a_at) / RFU FAM211A (11726209_a_at) / Fold change /veh FAM211A (11726209_a_at) / RFU RGS16 (11746705_a_at) / Fold change /veh RGS16 (11746705_a_at) / RFU VCAN (11755009_s_at) / Fold change /veh VCAN (11755009_s_at) / RFU RHOB (11743442_s_at) / Fold change /veh RHOB (11743442_s_at) / RFU RGS16 (11720943_a_at) / Fold change /veh RGS16 (11720943_a_at) / RFU RGS16 (11720944_at) / Fold change /veh RGS16 (11720944_at) / RFU, VPS4B / Fold change vs veh, VPS4B / RFU, CREB1 / Fold change vs veh, CREB1 / RFU, DNAJC13 / Fold change vs veh, DNAJC13 / RFU, GNAQ / Fold change vs veh, GNAQ / RFU, CDK5R1 / Fold change vs veh, CDK5R1 / RFU, ZRANB3 / Fold change vs veh, ZRANB3 / RFU, CUL4A / Fold change vs veh, CUL4A / RFU, CCNY / Fold change vs veh, CCNY / RFU, UFL1 / Fold change vs veh, UFL1 / RFU, COG3 / Fold change vs veh, COG3 / RFU, DIAPH2 / Fold change vs veh, DIAPH2 / RFU, SKA2 / Fold change vs veh, SKA2 / RFU, AFF3 / Fold change vs veh, AFF3 / RFU, LMF1 / Fold change vs veh, LMF1 / RFU, IPO11 / Fold change vs veh, IPO11 / RFU, DFFB / Fold change vs veh, DFFB / RFU, FOXP1 / Fold change vs veh, FOXP1 / RFU, CARD8 / Fold change vs veh, CARD8 / RFU, STRN3 / Fold change vs veh, STRN3 / RFU, ADK / Fold change vs veh, ADK / RFU, RASSF2 / Fold change vs veh, RASSF2 / RFU, WIPF1 / Fold change vs veh, WIPF1 / RFU, LARP1B / Fold change vs veh, LARP1B / RFU, RASA1 / Fold change vs veh, RASA1 / RFU, RB1 / Fold change vs veh, RB1 / RFU, PPFIA1 / Fold change vs veh, PPFIA1 / RFU, MAT2A / Fold change vs veh, MAT2A / RFU, CCT5 / Fold change vs veh, CCT5 / RFU, WDR92 / Fold change vs veh, WDR92 / RFU, CUX1 / Fold change vs veh, CUX1 / RFU, TTC7A / Fold change vs veh, TTC7A / RFU, TMEM135 / Fold change vs veh, TMEM135 / RFU, DEPTOR / Fold change vs veh, DEPTOR / RFU, CPM / Fold change vs veh, CPM / RFU, DNAJB6 / Fold change vs veh, DNAJB6 / RFU, CACNA2D3 / Fold change vs veh, CACNA2D3 / RFU, DTX4 / Fold change vs veh, DTX4 / RFU, TFCP2 / Fold change vs veh, TFCP2 / RFU, GMCL1 /// GMCL1P1 / Fold change vs veh, GMCL1 /// GMCL1P1 / RFU, AEBP2 / Fold change vs veh, AEBP2 / RFU, SNHG1 /// SNORD22 /// SNORD25 /// SNORD26 /// SNORD27 /// SNORD28 /// SNORD29 /// SNORD31 / Fold change vs veh, SNHG1 /// SNORD22 /// SNORD25 /// SNORD26 /// SNORD27 /// SNORD28 /// SNORD29 /// SNORD31 / Fold change (Aza/veh), C12orf56 (ProbeSet 11735607_a_at) / Fold change (ACY-1035/veh), C12orf56 (ProbeSet 11735607_a_at) / Fold change (Aza/veh), FGFR1OP (ProbeSet 11751329_s_at) / Fold change (ACY-1035/veh), FGFR1OP (ProbeSet 11751329_s_at) / Fold change (Aza/veh), VPS36 (ProbeSet 11739960_a_at) / Fold change (ACY-1035/veh), VPS36 (ProbeSet 11739960_a_at) / RFU SYPL1 (11715823_x_at) / Fold change /veh SYPL1 (11715823_x_at) / RFU IGFBP7 (11715501_s_at) / Fold change /veh IGFBP7 (11715501_s_at) / RFU REEP3 (11722064_at) / Fold change /veh REEP3 (11722064_at) / RFU IGLL1 (11728026_x_at) / Fold change /veh IGLL1 (11728026_x_at): dose or concentration left out as unconfirmed. To be noted: ProbeSet 11746640_a_at; LIST D.

For `Nc1ncn([C@@H]2O[C@H](CO)[C@@H](O)[C@H]2O)c(=O)n1` [azacitidine], the “Fold change vs veh, RASSF2” value is 0.77.
